Results on eight compounds are retold here after publication PMC11222350, “Preclinical evaluation of [^18F]FP-CIT, the radiotracer targeting dopamine transporter for diagnosing Parkinson’s disease: pharmacokinetic and efficacy analysis” (EJNMMI Research, 2024).

Series [1] is described as follows: Metabolites of cold authentic FP-CIT in normal rats (LC-MS). Format: in vivo, Sprague–Dawley rats. As to conditions: FP-CIT 5 mg/kg i.v.; for presence in brain samples: 30 and 60 min. As for the experimental part: Male Sprague–Dawley Rats (group III) were anesthetized with 2% isoflurane in oxygen, and cold authentic FP-CIT dissolved in 10% DMSO normal saline diluent was intravenously injected via the tail vein (5 mg/kg; 5 mg/mL). Rats were sacrificed at different time points (30 and 60 min after injection, n = 3 each), and the tissues of interest (i.e., blood, urine, brain, and liver) were harvested. One rat injected with 10% DMSO in normal saline was used as the negative control. Plasma obtained from the blood samples was centrifuged at 3000 rpm for 10 min at room temperature. Urine samples were collected from the urinary bladder using a 1 mL syringe at specific time points. After adding ice-cold acetonitrile at a volume of onefold (v/v) for each plasma and urine sample obtained, the samples were centrifuged at 12,000 rpm for 5 min at 4 °C and the supernatant was collected. The brain and liver tissues were separately homogenized in 1 mL of a 0.9% normal saline/acetonitrile (95:5 v/v) solution using a homogenizer. The obtained homogenate was deproteinized using 500 μL of acetonitrile and centrifuged (4 °C, 12,000 rpm, 10 min), followed by collecting the supernatant. The supernatants obtained by centrifuging the blood, brain, liver, and urine samples were filtered with 2 mL of acetonitrile using a 0.45 μm UHP syringe filter to remove residues. Compounds identified as FP-CIT metabolites in a previous study were modified to a cold-fluorine-authentic form and used as positive controls. The filtered samples were analyzed qualitatively and quantitatively based on the positive controls.
The ISQEM LC–MS system (Thermo Fisher, Waltham, MA, USA) equipped with OptimaPak C18 (5 μm, 4.6 × 250 mm) column was used. The HPLCf elution condition (A: 0.1% (v/v) trifluoroacetic acid, B: acetonitrile) was as follows: a gradient elution; 90% (A), 10% (B) (0 min) → 40% (A), 60% (B) (35 min); and a flow rate of 1 mL/min. The injection volume of each sample was 20 μL. Electrospray ionization mass was scanned in both the positive and negative modes. Mass range (amu) was 100–2000; dwell times, 0.1 s; source voltage, 3000 V (positive) and − 2000 V (negative); and vaporizer temperature, 550 °C; nitrogen was used as nebulizing gas. For analysis, the masses of [M + H]^+ of cold authentic FP-CIT administrated and metabolites were extracted from the obtained total ion chromatogram, and Gaussian distribution curve fitting was conducted.

The conditions of series [2]: cited from earlier work.
The subject of series [3] is dopamine transporter. The settings on record: PET scanning; cited from earlier work.
The subject of series [4] is dopamine transporter. Further details: method as in PMID 30028339, PMID 23758882, PMID 15908232. As to conditions: cited from earlier work.
Details of series [5]: method as in earlier work. The settings on record: cited from earlier work.
The next series deals with serotonin transporter. As to conditions: cited from earlier work.

Where two headings read alike, the source gives them in different places.

`COC(=O)C1C(c2ccc(I)cc2)CC2CCC1N2CCCF` (stereo not drawn) [FP-CIT, N-(3-fluoropropyl)-2β-carboxymethoxy-3β-(4-iodophenyl) nortropane]: the “metabolite distribution in blood, brain, liver, urine EIC” value in series [1] (30 min after administration) is reported as “mainly observed in all the EIC of metabolic pathways”.

Consider `O=C(O)C1C(c2ccc(I)cc2)CC2CCC1N2CCCF` (centres unmarked) [FP-CIT-acid], for which, in series [2], the “amount relative to other forms” value was below 0.3% and the “blood–brain barrier penetration” value is given as “cannot penetrate the blood–brain barrier”. Also, the “presence in brain samples” value in series [1] was “Neither FP-CIT-acid nor nor-β-CIT-acid was observed in the brain samples”. Further, the “metabolite distribution, urine” value in series [1] (30 min after administration) is listed as “most distinctly observed in the urine samples”.

For `[11CH3]OC(=O)C1C(c2ccc(I)cc2)CC2CCC1N2CCCF` (centres unmarked) [[^11C]FP-CIT], the “time of transient equilibrium in time activity curves (specific binding to the striatum)” value in the series on dopamine transporter [3] is 70 to 90 min.

For the compound `CN1[C@H]2CC[C@@H]1[C@@H](CN(CC[S-])CC[N-]CC[S-])[C@@H](c1ccc(Cl)cc1)C2.[O]=[99Tc+4]` [[^99mTc]TRODAT-1], the “correlation (R) with TH IHC” value in the series with dopamine transporter [4] is 0.899.

For `COC(=O)[C@H]1[C@@H](c2ccc([123I])cc2)C[C@@H]2CC[C@H]1N2CCCF` [[^123I]FP-CIT], the “correlation (R) with dopamine transporter IHC” value with dopamine transporter [4] is on record as 0.88. Moreover, the injected dose excreted entry in series [5] (till 6 h post-injection, male Wistar rats) is “approximately 10%”; in series [5] (until 72 h, animals), “more than 80%”.

With `COC(=O)[C@H]1C(c2ccc([123I])cc2)C[C@@H]2CC[C@H]1N2C` (stereo partly drawn) [[^123I]β-CIT], in the series with dopamine transporter [4], the “correlation (R) with TH IHC” value is 0.911 and the “correlation (R) with dopamine transporter IHC” value is 0.936.

Regarding `O=C(O)C1C2CCC(CC1c1ccc(I)cc1)N2` (stereo not drawn) [nor-β-CIT-acid], the “blood–brain barrier penetration” value in series [2] (low-lipophilic metabolite of [^123I]FP-CIT) is recorded as “difficulty penetrating the BBB”. Also, the “presence in brain samples” value in series [1] is on record as “Neither FP-CIT-acid nor nor-β-CIT-acid was observed in the brain samples”. The metabolite distribution result in series [1] (60 min post-injection) is “appeared in the blood, urine, and liver samples”.

Consider `COC(=O)C1C2CCC(CC1c1ccc(I)cc1)N2` (stereo not drawn) [nor-β-CIT], for which, in the series on serotonin transporter, the “affinity for serotonin transporter relative to FP-CIT” value was “higher affinity for serotonin transporter than FP-CIT”. In series [1] (30 min after administration), the “metabolite distribution in blood, brain, liver, urine EIC” value is “mainly observed in all the EIC of metabolic pathways”.
